Values belong to the compound of their own block, whether it stands above or below them.
Experiments:
[1] = test system: aberrant blood cells of thalassemia; settings: in vitro; cited from earlier work
[2] = test system: aberrant blood cells of sickle cell anemia; settings: in vitro; cited from earlier work
HT-29 = settings: in vitro; cited from earlier work
HL-60 = settings: in vitro; cited from earlier work
[3] = test system: 1,2-dimethylhydraxine-induced rat intestine neoplasia; settings: equivalent intake to tributyrin at 5% of feed; cited from earlier work
[4] = test system: cancer or transformed cells lines; settings: combinations of sodium butyrate and active Vitamin D forms; cited from earlier work
thalassemia = settings: continuous intravenous infusions, 500 mg/kg/day or higher, several days; cited from earlier work
leukemia [5] = settings: intravenous infusion, 500 mg/kg per day; cited from earlier work
[6] = continuous intravenous infusions, 500 mg/kg/day or higher, several days; cited from earlier work
[7] = intravenous infusion, 500 mg/kg per day; cited from earlier work
[8] = plasma, humans and rabbits; cited from earlier work
leukemia [9] = settings: intravenous infusions 500 mg/kg body weight per day for several days, child with leukemia; cited from earlier work
sickle cell = settings: continuous intravenous infusions, 500 mg/kg/day or higher, several days; cited from earlier work
[10] = test system: chemically induced colon cancer; settings: 5% of the feed, mice; cited from earlier work
[11] = parameters: species or system male Sprague Dawley rats; settings: rat, in vivo
Experimental: Three male Sprague Dawley rats (Harlan Sprague Dawley, Houston, Tex.) weighing approximately 306 g were fasted overnight and gavaged with 1 gm of tributyrin (Sigma catalog #T-5142, 99% pure, 302.4M) directly into the stomach. A fourth rat-was not gavaged. Rats were sacrificed at time zero (without gavage) or 0.5, 2 and 4 hours post gavage. At time of sacrifice, each rat was anesthetized with a mixture of ketamine (87 mg/kg) and rompun (13 mg/kg). A cardiac puncture was performed and approximately 2 mls of blood was withdrawn into a heparinized vacutainer tube. Blood was centrifuged at 2000×g for 7 minutes and plasma was withdrawn and stored frozen until analysis. At the time of analysis, plasma concentration was determined by the method of Remsey and Demigne (1974) using chromatographic methods as described by Boffa et al. (1992).
A single oral dose bolus of 1 gm of tributyrin was administered to rats, and the plasma levels of free butyrate measured over 4 hours.

Structure (SMILES): CCCC(=O)O [butyrate, butyric acid]
concentration giving desirable changes of aberrant blood cells [1]: about 0.05 mM | concentration giving desirable changes of aberrant blood cells [2]: about 0.05 mM | concentration at which butyrate has differentiation action (HT-29): 0.3 to 5 mM | concentration at which butyrate has differentiation action (HL-60): 0.3 to 5 mM

Structure (SMILES): CCCC(=O)[O-].[Na+] [sodium butyrate]
promoting or cancer increasing effect [3]: promoting or cancer increasing effect | effect of combination with active Vitamin D forms on differentiation [4]: additive or synergistic effects | success in treating thalassemia patients (thalassemia): success | clinical response (leukemia [5]): no clinical response | metabolism of butyrate [6]: apparently rapidly metabolized | metabolic half-life [7]: about 6 minutes | half-life [8]: about 6 minutes | remission (leukemia [9]): short-lived remission | success in treating sickle cell patients (sickle cell): success

absorption of butyrate [11]: very rapidly absorbed | return of plasma butyrate to baseline [11]: almost back to baseline at 4 hours | half-life of butyrate ([11]; po): about 40 minutes | peak level of butyrates ([11]; po): 0.35 mM | time over 0.10 mM butyrate ([11]; po): about 2 hours
Structure (SMILES): CCCC(=O)OCC(COC(=O)CCC)OC(=O)CCC [tributyrin, glyceryl tributyrate]
prevention of chemically induced colon cancer [10]: ineffective | promoting or cancer increasing effect [10]: did not produce the promoting or cancer increasing effect
